Test [1] deals with His-tagged KRAS G12D protein (Homo sapiens (Human), UniProt P01116, G12D). In words: KRAS G12D TR-FRET Assay. The conditions noted are these: biotinylated KRPep-2d, 10 μM GDP. The class given is binding. The gist of the method: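 His-KRAS G12D (20 nM working solution) preincubated with compound 30 min at rt in HEPES pH 7.4 buffer with 10 μM GDP, then biotinylated KRPep-2d added for 1 h. Eu-anti-His/streptavidin-d2 TR-FRET 665/615 ratio; IC50 from 4-parameter logistic fit.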
On the technique in general: TR-FRET usually uses a lanthanide donor and a delayed reading to cut background.

In test [2] the target is GDP-bound KRAS protein (aa 1-169), G12D and C118A; SOS-mediated nucleotide exchange (Homo sapiens (Human), UniProt P01116, C118A/G12D). In words: KRAS G12D Coupled Nucleotide Exchange Assay. The class given is biochemical. As to conditions: 2 h compound pre-incubation, GTP, cRAF AlphaScreen. The gist of the method: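 GDP-loaded KRAS (aa 1-169, G12D/C118A, N-His) preincubated 2 h with titrated compound in pH 7.4 HEPES/MgCl2/Triton buffer. SOS (aa 564-1049) plus GTP then added for 30 min. AlphaScreen readout; IC50 from 4-parameter logistic fit.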
Chain of GDP-bound KRAS protein (aa 1-169), G12D and C118A; SOS-mediated nucleotide exchange (P01116 other isoform, or with tags, fused parts or gaps G12D/C118A): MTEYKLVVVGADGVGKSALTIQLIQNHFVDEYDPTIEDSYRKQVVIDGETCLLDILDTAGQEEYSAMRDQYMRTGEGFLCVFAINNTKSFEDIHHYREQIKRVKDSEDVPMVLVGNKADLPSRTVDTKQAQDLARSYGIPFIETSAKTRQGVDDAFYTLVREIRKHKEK

The subject of test [3] is Phosphorylation of ERK1/2 in AsPC-1 cells. In words: Phospho-ERK1/2 MSD Assay. Format: cell-based. The conditions noted are these: Homo sapiens, ASPC1, 2 h, read-out: 2 h p-ERK (AsPC-1 cells), IC50 (μM), AsPC-1 cells, 2 h compound treatment. The gist of the method: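 AsPC-1 cells in 10% FBS RPMI 1640 were treated with a compound dose titration for 2 h at 37° C, then lysed in RIPA buffer with protease and phosphatase inhibitors. Phospho-ERK1/2 was measured by MSD whole-cell lysate immunoassay, and IC50 was derived by 4-parameter logistic fit.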

Molecules are shown by their SMILES.

Chain of His-tagged KRAS G12D protein (P01116-2 other isoform, or with tags, fused parts or gaps G12D): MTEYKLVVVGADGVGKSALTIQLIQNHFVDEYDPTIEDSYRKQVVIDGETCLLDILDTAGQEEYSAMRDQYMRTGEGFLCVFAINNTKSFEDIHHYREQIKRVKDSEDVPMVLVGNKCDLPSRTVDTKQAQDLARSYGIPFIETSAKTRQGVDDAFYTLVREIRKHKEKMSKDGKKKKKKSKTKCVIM

`C[C@]1(O)CCCN(c2nc(OC[C@@]34CCCN3C[C@H](F)C4)nc3c(F)c(-c4ccc(F)c5sc(N)c(C#N)c45)c(Cl)cc23)C1` [Example 39, 2-Amino-4-(6-chloro-8-fluoro-2-(((2R,7aS)-2-fluorotetrahydro-1H-pyrrolizin-7a(5H)-yl)methoxy)-4-((S)-3-hydroxy-3-methylpiperidin-1-yl)quinazolin-7-yl)-7-fluorobenzo[b] thiophene-3-carbonitrile]: the figures for the IC50 in test [1], in test [2] and in test [3] were 10 nM, 11 nM and 0.283 µM, respectively.
For the compound `N#Cc1c(N)sc2c(F)ccc(-c3c(Cl)cc4c(N5CCCC6(CC(=O)C6)C5)nc(OC[C@@]56CCCN5C[C@H](F)C6)nc4c3F)c12` [Example 40, 2-Amino-4-(6-chloro-8-fluoro-2-(((2R,7aS)-2-fluorotetrahydro-1H-pyrrolizin-7a(5H)-yl)methoxy)-4-(2-oxo-6-azaspiro[3.5]nonan-6-yl)quinazolin-7-yl)-7-fluorobenzo[b] thiophene-3-carbonitrile], the IC50 in test [1] is 19 nM; in test [2] it was 26 nM; in test [3], 1.68 µM.
For `C[C@@]1(O)CCCN(c2nc(OC[C@@]34CCCN3C[C@H](F)C4)nc3c(F)c(-c4ccc(F)c5sc(N)c(C#N)c45)c(Cl)cc23)C1` [Example 41, 2-Amino-4-(6-chloro-8-fluoro-2-(((2R,7aS)-2-fluorotetrahydro-1H-pyrrolizin-7a(5H)-yl)methoxy)-4-((R)-3-hydroxy-3-methylpiperidin-1-yl)quinazolin-7-yl)-7-fluorobenzo[b] thiophene-3-carbonitrile], in that order: 3 nM, 4 nM and 0.288 µM.
For `N#Cc1c(N)sc2c(F)ccc(-c3c(Cl)cc4c(N5CCCC6(COC6)C5)nc(OC[C@@]56CCCN5C[C@H](F)C6)nc4c3F)c12` [Example 42, 2-Amino-4-(6-chloro-8-fluoro-2-(((2R,7aS)-2-fluorotetrahydro-1H-pyrrolizin-7a(5H)-yl)methoxy)-4-(2-oxa-6-azaspiro[3.5]nonan-6-yl)quinazolin-7-yl)-7-fluorobenzo[b] thiophene-3-carbonitrile], in that order: 8 nM, 10 nM and 0.402 µM.
For `C[C@@]1(CO)CCCN(c2nc(OC[C@@]34CCCN3C[C@H](F)C4)nc3c(F)c(-c4ccc(F)c5sc(N)c(C#N)c45)c(Cl)cc23)C1` [Example 43, 2-Amino-4-(6-chloro-8-fluoro-2-(((2R,7aS)-2-fluorotetrahydro-1H-pyrrolizin-7a(5H)-yl)methoxy)-4-((R)-3-(hydroxymethyl)-3-methylpiperidin-1-yl)quinazolin-7-yl)-7-fluorobenzo[b] thiophene-3-carbonitrile], in that order: 15 nM, 18 nM and 1.16 µM.
As for `C[C@@]1(CO)CCCN1c1nc(OC[C@@]23CCCN2C[C@H](F)C3)nc2c(F)c(-c3ccc(F)c4sc(N)c(C#N)c34)c(Cl)cc12` [Example 47, 2-Amino-4-(6-chloro-8-fluoro-2-(((2R,7aS)-2-fluorotetrahydro-1H-pyrrolizin-7a(5H)-yl)methoxy)-4-((S)-2-(hydroxymethyl)-2-methylpyrrolidin-1-yl)quinazolin-7-yl)-7-fluorobenzo[6] thiophene-3-carbonitrile], the IC50 in test [1] turned out to be 17 nM; in test [2], 7 nM; in test [3], 1.11 µM.
For `COC[C@@H]1CCCN1c1nc(OC[C@@]23CCCN2C[C@H](F)C3)nc2c(F)c(-c3ccc(F)c4sc(N)c(C#N)c34)c(Cl)cc12` [Example 48, 2-Amino-4-(6-chloro-8-fluoro-2-(((2R,7a.S)-2-fluorotetrahydro-1H-pyrrolizin-7a(5H)-yl)methoxy)-4-((S)-2-(methoxymethyl)pyrrolidin-1-yl)quinazolin-7-yl)-7-fluorobenzo[b] thiophene-3-carbonitrile], in that order: 45 nM, 21 nM and 3.06 µM.

As a reminder, the IC50 is the concentration needed to halve the response being measured.

Values taken from patent US20250163064A1, “QUINAZOLINE COMPOUNDS AND USES THEREOF AS INHIBITORS OF MUTANT KRAS PROTEINS” (AMGEN INC., priority 2022, published 2025).
